Source: paper PMC10647704 (Molecules, 2023)
Values after ≈ are worked out from the molar mass of the structure shown. Where two headings read alike, the source gives them in different places.

Assays:
C. albicans S1 = experiment: Mouse model of vulvovaginal candidiasis (VVC); details: for histopathology of vaginal tissue (H&E): day 6, infected and treated mice; for Log CFU/100 μL / Remaining C. albicans S1 Compared to Control (100%): vaginal lavage day 6, intravaginal once daily days 3-5, CHB 12.5 mg/kg, MICO 2% cream; for expression of MPO in vaginal tissue (IHC): day 6, compared to 6th day infected and vehicle groups; for PMN counts of vaginal tissues: day 6, compared to control and vehicle group; for gross markers of the health of the mice: intravaginal suspension, over the course of the study
[1] = test system: human epidermoid carcinoma cells KB-3-1; experiment: MTT cell viability assay in KB-3-1 cells; type: cell-based; details: for IC50: 24 h incubation, 48 h of treatment; for fungal selectivity (ratio of the IC50 in KB-3-1 cells to the IC50 in S1 cells): KB-3-1 vs C. albicans S1
Method: MTT assays were then performed to assess the effect of the test compounds on human epidermoid carcinoma cells KB-3-1 (24 h incubation).
The cell viability assay was performed in human epidermoid carcinoma cells KB-3-1. Initially, 5 × 10^3 cells were seeded into each well in a 96-well plate. […] After 48 h of treatment, 20 µL of MTT solution (5 mg/mL) was added to each well and allowed to incubate for 3.5 h. Subsequently, DMSO was added to each well upon removal of the MTT solution. The Abs570nm values were then measured using an accuSkanTM GO UV/VIS Microplate Spectrophotometer (Fisher Sci., Fair Lawn, NJ, USA).

[2] = target: yeast plasma membrane H+-ATPase (Pma1p) (Candida albicans, UniProt P28877); experiment: Medium acidification assay in C. albicans S1; type: cell-based; details: change in pH at 30 min, highest test concentration 30 µM, mean ± SEM of three experiments
yeast plasma membrane H+-ATPase (Pma1p), sequence (P28877 whole entry): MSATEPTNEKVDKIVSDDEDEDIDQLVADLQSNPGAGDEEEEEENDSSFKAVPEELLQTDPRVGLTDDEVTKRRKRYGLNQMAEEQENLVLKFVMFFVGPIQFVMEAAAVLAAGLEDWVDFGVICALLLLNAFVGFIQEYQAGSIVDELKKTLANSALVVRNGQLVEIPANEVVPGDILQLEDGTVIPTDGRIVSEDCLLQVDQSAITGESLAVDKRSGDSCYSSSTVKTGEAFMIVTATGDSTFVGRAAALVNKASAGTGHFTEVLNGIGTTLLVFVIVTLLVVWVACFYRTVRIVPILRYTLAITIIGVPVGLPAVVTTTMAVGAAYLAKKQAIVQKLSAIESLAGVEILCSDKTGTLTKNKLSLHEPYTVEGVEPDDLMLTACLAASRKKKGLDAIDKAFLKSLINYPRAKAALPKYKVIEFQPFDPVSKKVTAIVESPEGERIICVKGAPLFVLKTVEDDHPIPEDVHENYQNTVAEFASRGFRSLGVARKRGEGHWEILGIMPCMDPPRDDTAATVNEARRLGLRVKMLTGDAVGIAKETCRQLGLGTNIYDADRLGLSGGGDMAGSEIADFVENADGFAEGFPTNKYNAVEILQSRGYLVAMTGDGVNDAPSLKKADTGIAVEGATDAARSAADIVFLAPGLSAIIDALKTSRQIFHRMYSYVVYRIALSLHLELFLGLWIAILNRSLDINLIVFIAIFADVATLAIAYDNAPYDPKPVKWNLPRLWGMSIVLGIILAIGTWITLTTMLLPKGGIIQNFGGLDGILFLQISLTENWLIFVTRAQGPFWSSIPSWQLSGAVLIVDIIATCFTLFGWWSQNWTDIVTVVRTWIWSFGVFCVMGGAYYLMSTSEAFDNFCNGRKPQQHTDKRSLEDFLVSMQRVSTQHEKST

[3] = test system: C. albicans S1 (FLU-sensitive); experiment: Colorimetric resazurin assay (MIC) in C. albicans S1; type: cell-based; details: read-out: MIC, colorimetric assay
[4] = test system: C. albicans S1 (FLU-sensitive); experiment: Turbidity assay (MIC and IC50) in C. albicans S1; type: cell-based
[5] = target: Na+, K+-ATPase (purified from pig kidney outer medulla) (Sus scrofa, UniProt P05024); experiment: Na+,K+-ATPase activity assay; type: biochemical; details: test concentrations similar to the MIC concentrations; micromolar range; prevented by 5 mM GSH
[6] = test system: breast cancer cell line MCF-7; set-up: method as in PMID 31683558; details: breast cancer cell line MCF-7 ref 23; cited from earlier work
[7] = test system: reconstructed human epidermis; experiment: In vitro skin irritation test on reconstructed human epidermal model (EpiDerm, OECD TG 439); type: cell-based
Method: The in vitro skin irritation test was performed using MatTek Corporation’s Reconstructed Human Epidermal Model EpiDerm™ following the manufacturer’s instructions, which fulfills the criteria set forth in the Organization for Economic Co-operation and Development.
Briefly, we applied either 30 µL of CHB4 or CHB6, PBS, 0.1% DMSO or 30 µL of 1% Triton-X100 (positive control for irritation). All plates were then incubated in a humidified environment for an additional 35 ± 1 min at 37 ± 1 °C, 5 ± 1% CO2, and 90% ± 10% relative humidity (RH). Once the 1 h incubation period was completed for the dosed tissues, all plates were removed from the incubator and placed in a sterile hood. The tissues were then rinsed 15 times with sterile PBS. The blotted tissue inserts were then incubated for 42 ± 2 h after which time the cell viability was determined using the MTT assay as described.

[8] = Homo sapiens, KB 3-1, KB-3-1 cells, read-out: MTT Assay IC50 KB-3-1 Cells
[9] = Candida albicans, C. albicans S1, 24 h, resazurin
[10] = Candida albicans, C. albicans S1, 48 h, resazurin
[11] = Candida albicans, 24 h; read-out: MIC, turbidity assay
[12] = Candida albicans, 48 h; read-out: MIC, turbidity assay
[13] = Candida albicans; Abs600nm at 48 h; read-out: Turbidity Assay IC50 C. albicans S1
[14] = Homo sapiens, KB 3-1, read-out: MTT Assay IC50 KB-3-1 Cells, KB-3-1 cells
[15] = read-out: IC50MA (medium acidification)
[16] = Candida albicans, 24 h, read-out: MIC, turbidity assay
[17] = Candida albicans, 48 h, read-out: MIC, turbidity assay
[18] = Candida albicans, 48 h, read-out: Turbidity Assay IC50 C. albicans S1
[19] = KB-3-1 cells, read-out: MTT Assay IC50 KB-3-1 Cells
[20] = Abs600nm at 48 h; read-out: Turbidity Assay IC50 C. albicans S1
[21] = C. albicans S1, 24 h; for FLU the lowest concentration causing 70% decrease in turbidity; read-out: MIC, turbidity assay
[22] = C. albicans S1, 48 h; for FLU the lowest concentration causing 70% decrease in turbidity; read-out: MIC, turbidity assay
[23] = Candida albicans, 48 h, Abs600nm at 48 h; read-out: Turbidity Assay IC50 C. albicans S1

SMILES	histopathology of vaginal tissue (H&E) (C. albicans S1)	Log CFU/100 μL (C. albicans S1)	Remaining C. albicans S1 Compared to Control (100%) (C. albicans S1)	IC50 [1, 8]	IC50 ([2]; IC50MA (medium acidification))	MIC [3, 9]	MIC [3, 10]	MIC [4, 11]	MIC [4, 12]	IC50 [4, 13]	inhibitory activity towards the Na+, K+-ATPase [5]	IC50 [1, 14]	IC50 [2, 15]	MIC ([3]; Candida albicans, 24 h)	MIC ([3]; Candida albicans, 48 h)	MIC [4, 16]	MIC [4, 17]	IC50 [4, 18]	MIC [4, 21]	MIC [4, 22]	other results
Clc1ccc(COC(Cn2ccnc2)c2ccc(Cl)cc2Cl)c(Cl)c1 (centres unmarked) [Miconazole (MICO), miconazole, reference compound]	slight epithelial distress	4.470 Log CFU/100 μL	6.950%	–	–	–	–	–	–	–	–	–	–	–	–	–	–	–	–	–	–
C[C@@H]1[C@@H](n2[se]c3ccccc3c2=O)C[C@H]2C[C@@H]1C2(C)C [CHB1]	–	–	–	28.1 ± 1.5 µM	> 30 µM	12.5 µM (≈ 4.18 µg/mL)	6.3 µM (≈ 2.11 µg/mL)	12.5 µM (≈ 4.18 µg/mL)	12.5 µM (≈ 4.18 µg/mL)	7.3 ± 0.1 µM	–	–	–	–	–	–	–	–	–	–	–
CC(C)[C@@H]1CC[C@@H](C)C[C@H]1n1[se]c2ccccc2c1=O [CHB6, (−)-N-(1R,2S,5R)-menthyl-1,2-benzizoselenazol-3(2H)-one]	slight epithelial distress	3.655 Log CFU/100 μL	1.064%	–	–	–	–	–	–	–	possess inhibitory activity	48.5 ± 5.9 µM	> 30 µM	3.1 µM (≈ 1.04 µg/mL)	3.1 µM (≈ 1.04 µg/mL)	3.1 µM (≈ 1.04 µg/mL)	3.1 µM (≈ 1.04 µg/mL)	1.8 ± 0.1 µM	–	–	IC50 [6]: 11.9 ± 0.2 µM; fungal selectivity (ratio of the IC50 in KB-3-1 cells to the IC50 in S1 cells) [1]: 26.9; expression of MPO in vaginal tissue (IHC) (C. albicans S1): decrease; PMN counts of vaginal tissues (C. albicans S1): less PMN counts compared to control and vehicle group; gross markers of the health of the mice (C. albicans S1): without affecting any gross markers of the health of the mice; skin irritation ([7]; test concentrations up to 50 µM): no skin irritation
C[C@@H]1C[C@H]2[C@@H](C[C@H]1n1[se]c3ccccc3c1=O)C2(C)C [CHB5]	–	–	–	> 90 µM	> 30 µM	12.5 µM (≈ 4.18 µg/mL)	25 µM (≈ 8.36 µg/mL)	25 µM (≈ 8.36 µg/mL)	12.5 µM (≈ 4.18 µg/mL)	7.5 ± 0.1 µM	–	–	–	–	–	–	–	–	–	–	IC50 [1, 19]: 94.1 ± 4.7 µM
C[C@H]1[C@H](n2[se]c3ccccc3c2=O)C[C@@H]2C[C@H]1C2(C)C [CHB2]	–	–	–	25.5 ± 1.9 µM	> 30 µM	12.5 µM (≈ 4.18 µg/mL)	12.5 µM (≈ 4.18 µg/mL)	12.5 µM (≈ 4.18 µg/mL)	12.5 µM (≈ 4.18 µg/mL)	7.6 ± 0.1 µM	–	–	–	–	–	–	–	–	–	–	–
OC(Cn1cncn1)(Cn1cncn1)c1ccc(F)cc1F [FLU, fluconazole, reference compound]	–	–	–	> 1000 µM	–	–	–	25 µM (≈ 7.66 µg/mL)	25 µM (≈ 7.66 µg/mL)	–	–	–	> 30 µM	–	–	–	–	–	25.0 µM (≈ 7.66 µg/mL)	25.0 µM (≈ 7.66 µg/mL)	IC50 [4, 20]: 6.01 ± 0.1 µM; IC50 [4, 23]: ~6 µM
C[C@H]1CC[C@@H]2[C@H]([C@@H]1n1[se]c3ccccc3c1=O)C2(C)C [CHB4]	slight epithelial distress	4.448 Log CFU/100 μL	6.607%	–	–	–	–	–	–	–	possess inhibitory activity	17.9 ± 3.1 µM	13.8 ± 1.1 µM	6.3 µM (≈ 2.11 µg/mL)	12.5 µM (≈ 4.18 µg/mL)	12.5 µM (≈ 4.18 µg/mL)	12.5 µM (≈ 4.18 µg/mL)	7.7 ± 0.1 µM	–	–	fungal selectivity (ratio of the IC50 in KB-3-1 cells to the IC50 in S1 cells) [1]: 2.3; expression of MPO in vaginal tissue (IHC) (C. albicans S1): decrease; PMN counts of vaginal tissues (C. albicans S1): less PMN counts compared to control and vehicle group; gross markers of the health of the mice (C. albicans S1): without affecting any gross markers of the health of the mice; skin irritation ([7]; test concentrations up to 100 µM): no skin irritation
O=c1c2ccccc2[se]n1-c1ccccc1 [EB, Ebselen, reference compound]	–	–	–	89.7 µM	–	25 µM (≈ 6.85 µg/mL)	25 µM (≈ 6.85 µg/mL)	25 µM (≈ 6.85 µg/mL)	25 µM (≈ 6.85 µg/mL)	–	possess inhibitory activity	–	–	–	–	–	–	–	25.0 µM (≈ 6.85 µg/mL)	25.0 µM (≈ 6.85 µg/mL)	IC50 [1, 19]: 89.7 ± 3.42 µM; MIC ([3]; C. albicans S1, 24 h, resazurin): 25.0 µM (≈ 6.85 µg/mL); MIC ([3]; C. albicans S1, 48 h, resazurin): 25.0 µM (≈ 6.85 µg/mL); IC50 [4, 20]: 17.1 ± 1.01 µM; IC50 [4, 23]: ~17 µM
CC1(C)C2CCC(Cn3[se]c4ccccc4c3=O)C1C2 (single isomer, unassigned; (-)) [CHB3]	–	–	–	–	–	–	–	–	–	–	–	> 60 µM	> 30 µM	12.5 µM (≈ 4.18 µg/mL)	25 µM (≈ 8.36 µg/mL)	25 µM (≈ 8.36 µg/mL)	25 µM (≈ 8.36 µg/mL)	18.1 ± 0.2 µM	25.0 µM (≈ 8.36 µg/mL)	25.0 µM (≈ 8.36 µg/mL)	IC50 ([1]; read-out: MTT Assay IC50 KB-3-1 Cells, KB-3-1 cells): 65.7 ± 4.4 µM
